PMC4893628, “Chalcone-based Selective Inhibitors of a C4 Plant Key Enzyme as Novel Potential Herbicides” (Scientific Reports, 2016)
Where two headings read alike, the source gives them in different places.

Columns and labels:
[1] = test system: Pseudomonas putida KT2440; test: Bacterial growth in microscale cultivation, P. putida; type: cell-based; details: for activity at 0.4 µM / activity at 4 µM / activity at 40 µM / activity at 0.3 µM / activity at 3 µM / activity at 30 µM: Pseudomonas putida
Summary of the method: (§1)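 In a BioLector microscale system shaken at 1200 rpm, growth was tracked by backscatter at 620 nm, and final signal, growth rate (h⁻¹) and lag-phase length were scored against DMSO-only controls. Starting OD600 was 0.5, or 0.25 for B. subtilis. Inhibitors came from DMSO stocks, with trans-chalcone capped at 400 μM and 2'-hydroxychalcone at 100 μM.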

[2] = test system: Bacillus subtilis 168; test: Bacterial growth in microscale cultivation, B. subtilis; type: cell-based
Summary of the method: as §1

[3] = test system: Amaranthus retroflexus; test: In planta growth experiment, A. retroflexus; type: in vivo; details: for Influence on plants: shoots sprayed, 3 mM
Summary of the method: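 Single top spray of 3 mM compound (2.4% DMSO, 0.1% Tween) onto two-leaf-stage plants in a climate chamber (22/20 °C, 16 h/8 h); controls got vehicle only.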

[4] = complex medium, 0.4 µM, relative to control
[5] = complex medium, 4 µM, relative to control
[6] = complex medium, 40 µM, relative to control
[7] = minimal medium, 0.4 µM, relative to control
[8] = minimal medium, 4 µM, relative to control
[9] = minimal medium, 40 µM, relative to control
[10] = complex medium, 0.3 µM, relative to control
[11] = complex medium, 3 µM, relative to control
[12] = complex medium, 30 µM, relative to control
[13] = minimal medium, 0.3 µM, relative to control
[14] = minimal medium, 3 µM, relative to control
[15] = minimal medium, 30 µM, relative to control

O=C(/C=C/c1ccc(O)c(O)c1)c1ccc(O)cc1O [Compound 8, 2′,4′,3,4-Tetrahydroxy-chalcone]
activity at 0.4 µM ([1]; KT2440, complex medium, 0.4 µM, relative to control, read-out: Final Backscatter): 94.7%
activity at 0.4 µM ([1]; KT2440, complex medium, 0.4 µM, relative to control, read-out: Growth rate): 90.8%
activity at 4 µM ([1]; KT2440, complex medium, 4 µM, relative to control, read-out: Final Backscatter): 97%
activity at 4 µM ([1]; KT2440, complex medium, 4 µM, relative to control, read-out: Growth rate): 97.4%
activity at 40 µM ([1]; KT2440, complex medium, 40 µM, relative to control, read-out: Final Backscatter): 94.9%
activity at 40 µM ([1]; KT2440, complex medium, 40 µM, relative to control, read-out: Growth rate): 95.3%
activity at 0.4 µM ([1]; KT2440, minimal medium, 0.4 µM, relative to control, read-out: Final Backscatter): 87%
activity at 0.4 µM ([1]; KT2440, minimal medium, 0.4 µM, relative to control, read-out: Growth rate): 83.7%
activity at 4 µM ([1]; KT2440, minimal medium, 4 µM, relative to control, read-out: Final Backscatter): 89.8%
activity at 4 µM ([1]; KT2440, minimal medium, 4 µM, relative to control, read-out: Growth rate): 89%
activity at 40 µM ([1]; KT2440, minimal medium, 40 µM, relative to control, read-out: Final Backscatter): 94.8%
activity at 40 µM ([1]; KT2440, minimal medium, 40 µM, relative to control, read-out: Growth rate): 90%
Lag Phase [1, 4]: 92,6%
Lag Phase [1, 5]: 93,2%
Lag Phase [1, 6]: 96,3%
Lag Phase [1, 7]: 99,6%
Lag Phase [1, 8]: 99,6%
Lag Phase [1, 9]: 98,5%
activity at 0.4 µM ([2]; Bacillus subtilis, 168, complex medium, 0.4 µM, relative to control, read-out: Final Backscatter): 98.1%
activity at 0.4 µM ([2]; Bacillus subtilis, 168, complex medium, 0.4 µM, relative to control, read-out: Growth rate): 98.2%
activity at 4 µM ([2]; Bacillus subtilis, 168, complex medium, 4 µM, relative to control, read-out: Final Backscatter): 100%
activity at 4 µM ([2]; Bacillus subtilis, 168, complex medium, 4 µM, relative to control, read-out: Growth rate): 111%
activity at 40 µM ([2]; Bacillus subtilis, 168, complex medium, 40 µM, relative to control, read-out: Final Backscatter): 98.9%
activity at 40 µM ([2]; Bacillus subtilis, 168, complex medium, 40 µM, relative to control, read-out: Growth rate): 109%
activity at 0.4 µM ([2]; Bacillus subtilis, 168, minimal medium, 0.4 µM, relative to control, read-out: Final Backscatter): 85.1%
activity at 0.4 µM ([2]; Bacillus subtilis, 168, minimal medium, 0.4 µM, relative to control, read-out: Growth rate): 106%
activity at 4 µM ([2]; Bacillus subtilis, 168, minimal medium, 4 µM, relative to control, read-out: Final Backscatter): 92.1%
activity at 4 µM ([2]; Bacillus subtilis, 168, minimal medium, 4 µM, relative to control, read-out: Growth rate): 105%
activity at 40 µM ([2]; Bacillus subtilis, 168, minimal medium, 40 µM, relative to control, read-out: Final Backscatter): 94.2%
activity at 40 µM ([2]; Bacillus subtilis, 168, minimal medium, 40 µM, relative to control, read-out: Growth rate): 95.7%
Lag Phase [2, 4]: 98,3%
Lag Phase [2, 5]: 86,5%
Lag Phase [2, 6]: 105,1%
Lag Phase [2, 7]: 107,5%
Lag Phase [2, 8]: 110,3%
Lag Phase [2, 9]: 90,4%
Influence on plants [3]: No

O=C(/C=C/c1cc(O)c(O)c(O)c1)c1ccc(O)cc1O [Compound 9, 2′,4′,3,4,5-Pentahydroxychalcone]
activity at 0.3 µM ([1]; KT2440, complex medium, 0.3 µM, relative to control, read-out: Final Backscatter): 94.7%
activity at 0.3 µM ([1]; KT2440, complex medium, 0.3 µM, relative to control, read-out: Growth rate): 99.4%
activity at 3 µM ([1]; KT2440, complex medium, 3 µM, relative to control, read-out: Final Backscatter): 96.9%
activity at 3 µM ([1]; KT2440, complex medium, 3 µM, relative to control, read-out: Growth rate): 101%
activity at 30 µM ([1]; KT2440, complex medium, 30 µM, relative to control, read-out: Final Backscatter): 93%
activity at 30 µM ([1]; KT2440, complex medium, 30 µM, relative to control, read-out: Growth rate): 102%
activity at 0.3 µM ([1]; KT2440, minimal medium, 0.3 µM, relative to control, read-out: Final Backscatter): 93.1%
activity at 0.3 µM ([1]; KT2440, minimal medium, 0.3 µM, relative to control, read-out: Growth rate): 109%
activity at 3 µM ([1]; KT2440, minimal medium, 3 µM, relative to control, read-out: Final Backscatter): 96.5%
activity at 3 µM ([1]; KT2440, minimal medium, 3 µM, relative to control, read-out: Growth rate): 108%
activity at 30 µM ([1]; KT2440, minimal medium, 30 µM, relative to control, read-out: Final Backscatter): 98.3%
activity at 30 µM ([1]; KT2440, minimal medium, 30 µM, relative to control, read-out: Growth rate): 108%
Lag Phase [1, 10]: 101,2%
Lag Phase [1, 11]: 102,4%
Lag Phase [1, 12]: 99,4%
Lag Phase [1, 13]: 99,0%
Lag Phase [1, 14]: 99,3%
Lag Phase [1, 15]: 99,7%
activity at 0.3 µM ([2]; Bacillus subtilis, 168, complex medium, 0.3 µM, relative to control, read-out: Final Backscatter): 100%
activity at 0.3 µM ([2]; Bacillus subtilis, 168, complex medium, 0.3 µM, relative to control, read-out: Growth rate): 111%
activity at 3 µM ([2]; Bacillus subtilis, 168, complex medium, 3 µM, relative to control, read-out: Final Backscatter): 99.7%
activity at 3 µM ([2]; Bacillus subtilis, 168, complex medium, 3 µM, relative to control, read-out: Growth rate): 112%
activity at 30 µM ([2]; Bacillus subtilis, 168, complex medium, 30 µM, relative to control, read-out: Final Backscatter): 98.6%
activity at 30 µM ([2]; Bacillus subtilis, 168, complex medium, 30 µM, relative to control, read-out: Growth rate): 104%
activity at 0.3 µM ([2]; Bacillus subtilis, 168, minimal medium, 0.3 µM, relative to control, read-out: Final Backscatter): 104%
activity at 0.3 µM ([2]; Bacillus subtilis, 168, minimal medium, 0.3 µM, relative to control, read-out: Growth rate): 99.6%
activity at 3 µM ([2]; Bacillus subtilis, 168, minimal medium, 3 µM, relative to control, read-out: Final Backscatter): 103%
activity at 3 µM ([2]; Bacillus subtilis, 168, minimal medium, 3 µM, relative to control, read-out: Growth rate): 101%
activity at 30 µM ([2]; Bacillus subtilis, 168, minimal medium, 30 µM, relative to control, read-out: Final Backscatter): 107%
activity at 30 µM ([2]; Bacillus subtilis, 168, minimal medium, 30 µM, relative to control, read-out: Growth rate): 90.7%
Lag Phase [2, 10]: 100,0%
Lag Phase [2, 11]: 100,0%
Lag Phase [2, 12]: 97,4%
Lag Phase [2, 13]: 91,7%
Lag Phase [2, 14]: 98,8%
Lag Phase [2, 15]: 94,1%
Influence on plants [3]: No

O=C(/C=C/c1ccccc1)c1ccc(O)c(O)c1O [Compound 10, 2′,3′,4′-Trihydroxychalcone]
activity at 0.3 µM ([1]; KT2440, read-out: Final Backscatter, complex medium, 0.3 µM, relative to control): 103%
activity at 3 µM ([1]; KT2440, read-out: Final Backscatter, complex medium, 3 µM, relative to control): 102%
activity at 30 µM ([1]; KT2440, read-out: Final Backscatter, complex medium, 30 µM, relative to control): 105%
activity at 0.3 µM ([1]; KT2440, read-out: Final Backscatter, minimal medium, 0.3 µM, relative to control): 101%
activity at 3 µM ([1]; KT2440, read-out: Final Backscatter, minimal medium, 3 µM, relative to control): 101%
activity at 30 µM ([1]; KT2440, read-out: Final Backscatter, minimal medium, 30 µM, relative to control): 103%
activity at 0.3 µM ([1]; KT2440, read-out: Growth rate, complex medium, 0.3 µM, relative to control): 114%
activity at 3 µM ([1]; KT2440, read-out: Growth rate, complex medium, 3 µM, relative to control): 103%
activity at 30 µM ([1]; KT2440, read-out: Growth rate, complex medium, 30 µM, relative to control): 105%
activity at 0.3 µM ([1]; KT2440, read-out: Growth rate, minimal medium, 0.3 µM, relative to control): 94.8%
activity at 3 µM ([1]; KT2440, read-out: Growth rate, minimal medium, 3 µM, relative to control): 96%
activity at 30 µM ([1]; KT2440, read-out: Growth rate, minimal medium, 30 µM, relative to control): 91.3%
Lag Phase [1, 10]: 103,9%
Lag Phase [1, 11]: 100,9%
Lag Phase [1, 12]: 107,3%
Lag Phase [1, 13]: 100,0%
Lag Phase [1, 14]: 101,5%
Lag Phase [1, 15]: 99,2%
activity at 0.3 µM ([2]; Bacillus subtilis, 168, read-out: Final Backscatter, complex medium, 0.3 µM, relative to control): 102%
activity at 3 µM ([2]; Bacillus subtilis, 168, read-out: Final Backscatter, complex medium, 3 µM, relative to control): 101%
activity at 30 µM ([2]; Bacillus subtilis, 168, read-out: Final Backscatter, complex medium, 30 µM, relative to control): 103%
activity at 0.3 µM ([2]; Bacillus subtilis, 168, read-out: Final Backscatter, minimal medium, 0.3 µM, relative to control): 108%
activity at 3 µM ([2]; Bacillus subtilis, 168, read-out: Final Backscatter, minimal medium, 3 µM, relative to control): 110%
activity at 30 µM ([2]; Bacillus subtilis, 168, read-out: Final Backscatter, minimal medium, 30 µM, relative to control): 106%
activity at 0.3 µM ([2]; Bacillus subtilis, 168, read-out: Growth rate, complex medium, 0.3 µM, relative to control): 106%
activity at 3 µM ([2]; Bacillus subtilis, 168, read-out: Growth rate, complex medium, 3 µM, relative to control): 109%
activity at 30 µM ([2]; Bacillus subtilis, 168, read-out: Growth rate, complex medium, 30 µM, relative to control): 112%
activity at 0.3 µM ([2]; Bacillus subtilis, 168, read-out: Growth rate, minimal medium, 0.3 µM, relative to control): 88.5%
activity at 3 µM ([2]; Bacillus subtilis, 168, read-out: Growth rate, minimal medium, 3 µM, relative to control): 94.4%
activity at 30 µM ([2]; Bacillus subtilis, 168, read-out: Growth rate, minimal medium, 30 µM, relative to control): 90.6%
Lag Phase [2, 10]: 100,0%
Lag Phase [2, 11]: 104,2%
Lag Phase [2, 12]: 97,9%
Lag Phase [2, 13]: 98,3%
Lag Phase [2, 14]: 96,6%
Lag Phase [2, 15]: 99,3%
Influence on plants [3]: Yes
dry weight ([3]; six days after treatment, both experiments): significantly reduced
